O=C1OC(=O)[C@H]2[C@@H]1[C@@H]1C=C[C@H]2O1
solubility (mole fraction)
Details	278.15 K	283.15 K	288.15 K	293.15 K	298.15 K	303.15 K	308.15 K	313.15 K	318.15 K	323.15 K
in 1,4-dioxane	–	–	0.0221	0.0275	0.0342	0.0421	0.052	0.0682	0.0869	0.131
in acetone	0.0386	0.0439	0.0477	0.0551	0.0617	0.0703	0.0814	0.0929	0.104	0.126
in ethanol	0.000635	0.00076	0.00091	0.00102	0.00124	0.00145	0.00169	0.00202	0.00238	0.00292
in ethyl acetate	0.0152	0.0165	0.02	0.0223	0.0274	0.0309	0.0364	0.0414	0.0475	0.0559
in methyl acetate	0.0225	0.028	0.0297	0.0357	0.0416	0.0483	0.0587	0.068	0.0805	0.0963

Source: BigSolDB 2.1
